# Earlier results in US20080038364A1, “Methods of processing body parts for surgery” (priority 2006, published 2008).
# Read-outs that look alike come from different tables or passages of the source.
# Tests used:
# [1] = system: Giardia
# [2] = system: bacteria, viruses and other microorganisms; details: compared with chlorine
# [3] = system: virus organisms
structure (smiles),measurement,setting,value
O=[O+][O-] [ozone],CT for Giardia Inactivation,"[1]; 0.5 log inactivation, 5 °C",0.32 CT units
same,CT for Giardia Inactivation,"[1]; 0.5 log inactivation, 10 °C",0.23 CT units
same,CT for Giardia Inactivation,"[1]; 0.5 log inactivation, 15 °C",0.16 CT units
same,CT for Giardia Inactivation,"[1]; 0.5 log inactivation, 20 °C",0.12 CT units
same,CT for Giardia Inactivation,"[1]; 0.5 log inactivation, 25 °C",0.08 CT units
same,CT for Giardia Inactivation,"[1]; 1.0 log inactivation, 5 °C",0.63 CT units
same,CT for Giardia Inactivation,"[1]; 1.0 log inactivation, 10 °C",0.48 CT units
same,CT for Giardia Inactivation,"[1]; 1.0 log inactivation, 15 °C",0.32 CT units
same,CT for Giardia Inactivation,"[1]; 1.0 log inactivation, 20 °C",0.24 CT units
same,CT for Giardia Inactivation,"[1]; 1.0 log inactivation, 25 °C",0.16 CT units
same,CT for Giardia Inactivation,"[1]; 1.5 log inactivation, 5 °C",0.95 CT units
same,CT for Giardia Inactivation,"[1]; 1.5 log inactivation, 10 °C",0.72 CT units
same,CT for Giardia Inactivation,"[1]; 1.5 log inactivation, 15 °C",0.48 CT units
same,CT for Giardia Inactivation,"[1]; 1.5 log inactivation, 20 °C",0.36 CT units
same,CT for Giardia Inactivation,"[1]; 1.5 log inactivation, 25 °C",0.24 CT units
same,CT for Giardia Inactivation,"[1]; 2.0 log inactivation, 5 °C",1.3 CT units
same,CT for Giardia Inactivation,"[1]; 2.0 log inactivation, 10 °C",0.95 CT units
same,CT for Giardia Inactivation,"[1]; 2.0 log inactivation, 15 °C",0.63 CT units
same,CT for Giardia Inactivation,"[1]; 2.0 log inactivation, 20 °C",0.48 CT units
same,CT for Giardia Inactivation,"[1]; 2.0 log inactivation, 25 °C",0.32 CT units
same,CT for Giardia Inactivation,"[1]; 2.5 log inactivation, 5 °C",1.6 CT units
same,CT for Giardia Inactivation,"[1]; 2.5 log inactivation, 10 °C",1.2 CT units
same,CT for Giardia Inactivation,"[1]; 2.5 log inactivation, 15 °C",0.79 CT units
same,CT for Giardia Inactivation,"[1]; 2.5 log inactivation, 20 °C",0.60 CT units
same,CT for Giardia Inactivation,"[1]; 2.5 log inactivation, 25 °C",0.40 CT units
same,CT for Giardia Inactivation,"[1]; 3.0 log inactivation, 5 °C",1.9 CT units
same,CT for Giardia Inactivation,"[1]; 3.0 log inactivation, 10 °C",1.4 CT units
same,CT for Giardia Inactivation,"[1]; 3.0 log inactivation, 15 °C",0.95 CT units
same,CT for Giardia Inactivation,"[1]; 3.0 log inactivation, 20 °C",0.72 CT units
same,CT for Giardia Inactivation,"[1]; 3.0 log inactivation, 25 °C",0.48 CT units
same,half-life of ozone gas breaking down to oxygen,,20 min
same,disinfectant power relative to chlorine,[2],10 times
same,CT for Virus Inactivation,"[3]; 2.0 log inactivation, 5 °C",0.6 CT units
same,CT for Virus Inactivation,"[3]; 2.0 log inactivation, 10 °C",0.5 CT units
same,CT for Virus Inactivation,"[3]; 2.0 log inactivation, 15 °C",0.3 CT units
same,CT for Virus Inactivation,"[3]; 2.0 log inactivation, 20 °C",0.25 CT units
same,CT for Virus Inactivation,"[3]; 2.0 log inactivation, 25 °C",0.15 CT units
same,CT for Virus Inactivation,"[3]; 3.0 log inactivation, 5 °C",0.9 CT units
same,CT for Virus Inactivation,"[3]; 3.0 log inactivation, 10 °C",0.8 CT units
same,CT for Virus Inactivation,"[3]; 3.0 log inactivation, 15 °C",0.5 CT units
same,CT for Virus Inactivation,"[3]; 3.0 log inactivation, 20 °C",0.4 CT units
same,CT for Virus Inactivation,"[3]; 3.0 log inactivation, 25 °C",0.25 CT units
same,CT for Virus Inactivation,"[3]; 4.0 log inactivation, 5 °C",1.2 CT units
same,CT for Virus Inactivation,"[3]; 4.0 log inactivation, 10 °C",1.0 CT units
same,CT for Virus Inactivation,"[3]; 4.0 log inactivation, 15 °C",0.6 CT units
same,CT for Virus Inactivation,"[3]; 4.0 log inactivation, 20 °C",0.5 CT units
same,CT for Virus Inactivation,"[3]; 4.0 log inactivation, 25 °C",0.3 CT units
